The NIST ThermoML archive (doi:10.1021/je800105r)
Numbers after ± are expanded uncertainties.

Experiment: activity coefficient (dimensionless); of the first substance listed, at infinite dilution; xn = mol fraction of the nth substance listed
Settings: Liquid, Chromatography, x1 = 0

SMILES | activity coefficient (303.15 K) | activity coefficient (308.15 K) | activity coefficient (313.15 K) | activity coefficient (318.15 K)
C=CCCCCC [1-heptene] + CCCCCCCCCCCCCC[P+](CCCCCC)(CCCCCC)CCCCCC.O=S(=O)([N-]S(=O)(=O)C(F)(F)F)C(F)(F)F | 1 ± 0.06 | 1.02 ± 0.06 | 1.04 ± 0.07 | 1.09 ± 0.07
C#CCCCCC [1-heptyne] + CCCCCCCCCCCCCC[P+](CCCCCC)(CCCCCC)CCCCCC.O=S(=O)([N-]S(=O)(=O)C(F)(F)F)C(F)(F)F | 0.59 ± 0.04 | 0.63 ± 0.04 | 0.66 ± 0.05 | 0.7 ± 0.05
C#CCCCC [1-hexyne] + CCCCCCCCCCCCCC[P+](CCCCCC)(CCCCCC)CCCCCC.O=S(=O)([N-]S(=O)(=O)C(F)(F)F)C(F)(F)F | 0.66 ± 0.05 | 0.68 ± 0.05 | 0.71 ± 0.05 | 0.74 ± 0.05
C#CCCCCCC [1-octyne] + CCCCCCCCCCCCCC[P+](CCCCCC)(CCCCCC)CCCCCC.O=S(=O)([N-]S(=O)(=O)C(F)(F)F)C(F)(F)F | 0.53 ± 0.04 | 0.55 ± 0.04 | 0.58 ± 0.04 | 0.63 ± 0.04
C=CCCC [1-pentene] + CCCCCCCCCCCCCC[P+](CCCCCC)(CCCCCC)CCCCCC.O=S(=O)([N-]S(=O)(=O)C(F)(F)F)C(F)(F)F | 0.78 ± 0.05 | 0.8 ± 0.05 | 0.82 ± 0.05 | 0.85 ± 0.05
c1ccccc1 [benzene] + CCCCCCCCCCCCCC[P+](CCCCCC)(CCCCCC)CCCCCC.O=S(=O)([N-]S(=O)(=O)C(F)(F)F)C(F)(F)F | 0.38 ± 0.03 | 0.39 ± 0.03 | 0.4 ± 0.03 | 0.42 ± 0.04
C1CCCCCC1 [cycloheptane] + CCCCCCCCCCCCCC[P+](CCCCCC)(CCCCCC)CCCCCC.O=S(=O)([N-]S(=O)(=O)C(F)(F)F)C(F)(F)F | 0.88 ± 0.06 | 0.91 ± 0.06 | 0.92 ± 0.06 | 0.94 ± 0.06
C1CCCCC1 [cyclohexane] + CCCCCCCCCCCCCC[P+](CCCCCC)(CCCCCC)CCCCCC.O=S(=O)([N-]S(=O)(=O)C(F)(F)F)C(F)(F)F | 0.78 ± 0.05 | 0.8 ± 0.05 | 0.82 ± 0.05 | 0.85 ± 0.05
C1CCCC1 [cyclopentane] + CCCCCCCCCCCCCC[P+](CCCCCC)(CCCCCC)CCCCCC.O=S(=O)([N-]S(=O)(=O)C(F)(F)F)C(F)(F)F | 0.68 ± 0.05 | 0.69 ± 0.05 | 0.71 ± 0.05 | 0.73 ± 0.05
CCO [ethanol] + CCCCCCCCCCCCCC[P+](CCCCCC)(CCCCCC)CCCCCC.O=S(=O)([N-]S(=O)(=O)C(F)(F)F)C(F)(F)F | 1.36 ± 0.09 | 1.33 ± 0.09 | 1.31 ± 0.09 | 1.3 ± 0.08
CCCCCCC [heptane] + CCCCCCCCCCCCCC[P+](CCCCCC)(CCCCCC)CCCCCC.O=S(=O)([N-]S(=O)(=O)C(F)(F)F)C(F)(F)F | 1.26 ± 0.08 | 1.27 ± 0.08 | 1.3 ± 0.08 | 1.33 ± 0.09
C=CCCCC [hex-1-ene] + CCCCCCCCCCCCCC[P+](CCCCCC)(CCCCCC)CCCCCC.O=S(=O)([N-]S(=O)(=O)C(F)(F)F)C(F)(F)F | 0.88 ± 0.06 | 0.9 ± 0.06 | 0.92 ± 0.06 | 0.97 ± 0.06
CCCCCC [hexane] + CCCCCCCCCCCCCC[P+](CCCCCC)(CCCCCC)CCCCCC.O=S(=O)([N-]S(=O)(=O)C(F)(F)F)C(F)(F)F | 1.09 ± 0.07 | 1.1 ± 0.07 | 1.13 ± 0.07 | 1.17 ± 0.07
CO [methanol] + CCCCCCCCCCCCCC[P+](CCCCCC)(CCCCCC)CCCCCC.O=S(=O)([N-]S(=O)(=O)C(F)(F)F)C(F)(F)F | 1.26 ± 0.08 | 1.24 ± 0.08 | 1.23 ± 0.08 | 1.23 ± 0.08
C=CCCCCCC [oct-1-ene] + CCCCCCCCCCCCCC[P+](CCCCCC)(CCCCCC)CCCCCC.O=S(=O)([N-]S(=O)(=O)C(F)(F)F)C(F)(F)F | 1.11 ± 0.07 | 1.14 ± 0.07 | 1.16 ± 0.07 | 1.21 ± 0.08
CCCCCCCC [octane] + CCCCCCCCCCCCCC[P+](CCCCCC)(CCCCCC)CCCCCC.O=S(=O)([N-]S(=O)(=O)C(F)(F)F)C(F)(F)F | 1.32 ± 0.09 | 1.36 ± 0.09 | 1.4 ± 0.09 | 1.46 ± 0.1
CCCCC [pentane] + CCCCCCCCCCCCCC[P+](CCCCCC)(CCCCCC)CCCCCC.O=S(=O)([N-]S(=O)(=O)C(F)(F)F)C(F)(F)F | 0.94 ± 0.06 | 0.96 ± 0.06 | 0.99 ± 0.06 | 1.02 ± 0.06
CCCO [propan-1-ol] + CCCCCCCCCCCCCC[P+](CCCCCC)(CCCCCC)CCCCCC.O=S(=O)([N-]S(=O)(=O)C(F)(F)F)C(F)(F)F | 1.42 ± 0.09 | 1.4 ± 0.09 | 1.39 ± 0.09 | 1.38 ± 0.09
